Assay results from patent publication US20250197374A1, “WEE1 DEGRADING COMPOUNDS AND USES THEREOF” (BRISTOL-MYERS SQUIBB COMPANY, priority 2023, published 2025).
Like-named read-outs stand apart in the source and are kept apart here.

Legend:
Type in all cases: cell-based
[1] = target: T1, WEE1 (Homo sapiens, UniProt P30291+Q96SW2); assay: WEE1-ePL degradation assay (293T-LentiX, InCELL Hunter luminescence, 4 hr); conditions: for DC50: LentiX-HEK293T cells expressing WEE1-ePL, 4 hr incubation, read-out: 293T-LentiX WEE1-ePL Degradation 4 hr EC50; for 293T-LentiX WEE1-ePL Degradation 4 hr YMin (%): lower limit of fit, % of DMSO control signal remaining
T1 construct: C-terminal ePL-tagged (DiscoverX, Fremont, CA) full-length WEE1 expression construct; expressed in transfected cells; host or cells: LentiX-HEK293T (Invitrogen), lentivirally transduced; the cells also over-express GSPT1-GN
T1 sequence (P30291 whole entry): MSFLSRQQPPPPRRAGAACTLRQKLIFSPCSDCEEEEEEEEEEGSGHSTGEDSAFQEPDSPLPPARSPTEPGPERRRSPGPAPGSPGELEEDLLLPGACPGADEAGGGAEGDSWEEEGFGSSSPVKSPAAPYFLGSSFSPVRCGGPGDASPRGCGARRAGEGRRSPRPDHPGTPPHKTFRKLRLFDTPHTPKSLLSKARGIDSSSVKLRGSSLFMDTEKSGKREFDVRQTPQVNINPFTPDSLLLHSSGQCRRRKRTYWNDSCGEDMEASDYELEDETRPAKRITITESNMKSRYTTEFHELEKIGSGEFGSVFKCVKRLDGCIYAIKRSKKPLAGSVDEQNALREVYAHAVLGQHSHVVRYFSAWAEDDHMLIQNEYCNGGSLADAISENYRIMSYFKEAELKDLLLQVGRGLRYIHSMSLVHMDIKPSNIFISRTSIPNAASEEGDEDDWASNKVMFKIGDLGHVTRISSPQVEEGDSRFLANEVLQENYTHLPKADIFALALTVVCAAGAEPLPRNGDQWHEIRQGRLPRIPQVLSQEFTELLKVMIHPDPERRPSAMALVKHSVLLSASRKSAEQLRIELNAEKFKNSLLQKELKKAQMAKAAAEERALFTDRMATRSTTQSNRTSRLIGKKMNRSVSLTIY
T1 sequence (Q96SW2 whole entry): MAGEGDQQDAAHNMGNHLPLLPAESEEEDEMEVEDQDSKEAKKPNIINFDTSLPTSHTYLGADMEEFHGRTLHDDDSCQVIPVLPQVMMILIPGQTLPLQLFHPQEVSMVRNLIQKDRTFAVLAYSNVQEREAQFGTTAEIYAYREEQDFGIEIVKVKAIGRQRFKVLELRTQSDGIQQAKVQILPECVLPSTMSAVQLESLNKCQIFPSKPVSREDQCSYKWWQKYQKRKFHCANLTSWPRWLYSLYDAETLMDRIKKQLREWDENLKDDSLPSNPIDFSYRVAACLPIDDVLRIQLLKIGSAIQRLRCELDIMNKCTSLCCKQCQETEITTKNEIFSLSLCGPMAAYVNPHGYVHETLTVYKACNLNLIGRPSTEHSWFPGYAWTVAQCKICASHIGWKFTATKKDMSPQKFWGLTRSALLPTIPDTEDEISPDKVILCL
T1 sequence (Q16531 whole entry partner): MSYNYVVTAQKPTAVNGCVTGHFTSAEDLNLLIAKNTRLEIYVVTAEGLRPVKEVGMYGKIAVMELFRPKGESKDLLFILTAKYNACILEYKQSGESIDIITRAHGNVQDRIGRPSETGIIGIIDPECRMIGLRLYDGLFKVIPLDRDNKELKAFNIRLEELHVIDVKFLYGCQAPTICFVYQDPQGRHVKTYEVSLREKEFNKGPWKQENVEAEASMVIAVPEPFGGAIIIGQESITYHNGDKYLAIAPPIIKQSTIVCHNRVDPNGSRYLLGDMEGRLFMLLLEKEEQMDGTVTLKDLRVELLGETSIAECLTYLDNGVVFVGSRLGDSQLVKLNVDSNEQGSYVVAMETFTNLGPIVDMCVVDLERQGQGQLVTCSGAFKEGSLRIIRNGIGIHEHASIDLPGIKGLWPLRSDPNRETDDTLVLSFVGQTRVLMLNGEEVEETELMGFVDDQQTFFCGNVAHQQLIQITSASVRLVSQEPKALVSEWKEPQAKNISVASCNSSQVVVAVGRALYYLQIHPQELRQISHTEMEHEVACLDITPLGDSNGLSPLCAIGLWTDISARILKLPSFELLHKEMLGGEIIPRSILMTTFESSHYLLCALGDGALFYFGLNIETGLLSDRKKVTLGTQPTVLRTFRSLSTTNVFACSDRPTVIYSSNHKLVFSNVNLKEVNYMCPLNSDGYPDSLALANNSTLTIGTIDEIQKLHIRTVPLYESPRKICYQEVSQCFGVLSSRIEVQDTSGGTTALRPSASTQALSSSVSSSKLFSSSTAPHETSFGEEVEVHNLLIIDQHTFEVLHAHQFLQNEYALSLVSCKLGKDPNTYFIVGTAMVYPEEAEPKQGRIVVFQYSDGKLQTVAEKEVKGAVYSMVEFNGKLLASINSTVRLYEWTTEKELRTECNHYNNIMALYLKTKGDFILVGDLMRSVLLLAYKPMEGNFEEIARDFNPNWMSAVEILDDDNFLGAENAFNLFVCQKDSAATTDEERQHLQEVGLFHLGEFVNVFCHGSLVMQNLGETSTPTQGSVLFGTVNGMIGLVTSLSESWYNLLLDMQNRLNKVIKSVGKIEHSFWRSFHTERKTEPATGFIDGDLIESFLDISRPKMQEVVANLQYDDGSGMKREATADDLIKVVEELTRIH
Outline: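 EC50 comes from a four-parameter logistic fit of ePL luminescence (InCELL Hunter), with DMSO control defining Ymax. Compounds ran as 10-point 3-fold dilutions from 1 or 10 µM for 4 h at 37 °C. Cells were HEK293T-LentiX with ePL-tagged full-length WEE1 and over-expressed Cereblon-resistant GSPT1-GN.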

[2] = system: MKN45 cells; assay: MKN45 cell proliferation assay (Cell-Titer-Glo, 120 hr); conditions: for EC50: read-out: MKN45 Cell Prolif. 120 hr EC50; for MKN45 Cell Prolif. 120 hr YMin (%): minimal percent of DMSO control observed
From the text: (§1) MKN45 cells were obtained from Celgene internal cell banks and cultured in RPMI complete media (RPMI-1640, 1× Penicillin/Streptomycin, 1× glutamine, 1× Sodium Pyruvate, Non-essential Amino Acids, 10% Fetal Bovine serum, all component from Thermo-Fisher). MDA-MB-231 cells were obtained from the ATCC (HTB-26) and cultured in RPMI-1640 and 10% Fetal Bovine serum; MDA-MB-231 cells were expanded and stored as aliquots in liquid nitrogen in Celgene internal cell banks. Compounds were dispensed into 384-well plates using an HP DE300 compound printer in triplicate with 8 compounds on each plate. Compounds were dispensed into 384-well black clear bottom plates (Corning #3764BC) using an EDC acoustic dispenser at BMS. For each compound, a 10-point dose response was printed at half-log dilutions starting at either 1 uM or 10 uM in triplicate for MKN45 cells and in duplicate for MDA-MB-231 cells. The DMSO concentration was kept constant for a final assay concentration of 0.1% per well assuming 50 ul final media volume. Compound plates were sealed and frozen at −20 C until use.
(§2) For each assay batch, compound plates were thawed and allowed to reach room temperature, and cells were seeded at 400 MKN45 cells per well, or 800 MDA-MB-231 cells per well, in 50 ul media listed above for each cell line. After 120 hours of incubation at 37 C and 5% CO2, cells were lysed by addition of 25 μL of Cell-Titer-Glo Reagent (Promega Corporation, Madison, WI), as per manufacturer's instructions, protected from light, shaken for 45 minutes, and total luminescence read by a Perkin Elmer Envision plate reader. Total luminescence signal is linearly correlated with cell number remaining in the well.
(§3) Luminescence data was processed per plate by subtracting reagent-only “blank” well luminescence from all measured values and calculating a percent of DMSO control value for each treatment well. Then, to determine the half-maximal effective concentration (EC50) values for cell growth inhibition, a four parameter logistic model was fit to the data for each DMSO-normalized compound: Sigmoidal Dose-Response Model: (FIT=(A+((B−A)/1+((C/x)^D)))) where C is the inflection point ([…]), D is the Hill slope, and A and B are the low and high limits of the fit respectively. The lower limit of the fit (value A) is referred to as Ymin-calculated. The minimal percent of DMSO control that is observed in the concentrations tested for each compound is labeled as “Ymin-obs”, and was recorded and reported in the tables. Sigmoidal fit curves were processed and evaluated using Activity Base (IDBS, Alameda, CA) or using Dotmatics (Boston, MA). N/A=not available at the present time.

[3] = system: MDA-MB-231 cells; assay: MDA-MB-231 cell proliferation assay (Cell-Titer-Glo, 120 hr); conditions: for EC50: read-out: MDA-MB 231 Cell Prolif. 120 hr EC50; for MDA-MB 231 Cell Prolif. 120 hr YMin (%): minimal percent of DMSO control observed
From the text: as §1, §2, §3

[4] = Homo sapiens, MDA-MB-231, 120 h

| Compound | DC50 [1] | 293T-LentiX WEE1-ePL Degradation 4 hr YMin (%) [1] | EC50 ([2]; Homo sapiens, MKN-45, 120 h) | MKN45 Cell Prolif. 120 hr YMin (%) [2] | EC50 [3, 4] | MDA-MB 231 Cell Prolif. 120 hr YMin (%) [3] | EC50 [2] | EC50 [3] |
| --- | --- | --- | --- | --- | --- | --- | --- | --- |
| COC[C@@H]1CN(Cc2cc(F)c3nc(C(=O)N4CCOCC4)ccc3c2)C[C@H]1Oc1ccc2c(c1)CN([C@H]1CCC(=O)NC1=O)C2=O [Example 106, (3S)-3-(5-{[(3S,4S)-1-{[8-fluoro-2-(morpholine-4-carbonyl)quinolin-6-yl]methyl}-4-(methoxymethyl)pyrrolidin-3-yl]oxy}-1-oxo-2,3-dihydro-1H-isoindol-2-yl)piperidine-2,6-dione] | 4 nM | 29.8% | 18 nM | 11.5% | 18 nM | 50.8% |  |  |
| O=C1CC[C@H](N2Cc3cc(O[C@H]4CCN(Cc5ccc6nc([C@H]7CCO[C@]8(CCOC8)C7)ccc6c5)C4)ccc3C2=O)C(=O)N1 (relative stereo) [Example 23, rel-(3S)-3-(5-(((3S)-1-((2-(2,6-dioxaspiro[4.5]decan-9-yl)quinolin-6-yl)methyl)pyrrolidin-3-yl)oxy)-1-oxoisoindolin-2-yl)piperidine-2,6-dione] | 2 nM | 33.5% | 6 nM | 11.8% | 82 nM | 56.9% |  |  |
| COC[C@@H]1CN(Cc2cc(F)c3nc(N4C[C@@H]5CCO[C@@H]5C4)ncc3c2)C[C@H]1Oc1ccc2c(c1)CN([C@H]1CCC(=O)NC1=O)C2=O (single isomer, unassigned) [Example 13, (S)-3-(5-(((3S,4S)-1-((8-fluoro-2-((3aS*,6aS*)-hexahydro-5H-furo[2,3-c]pyrrol-5-yl)quinazolin-6-yl)methyl)-4-(methoxymethyl)pyrrolidin-3-yl)oxy)-1-oxoisoindolin-2-yl)piperidine-2,6-dione] | 1 nM | 22.1% | 3 nM | 11.9% | 61 nM | 37.3% |  |  |
| O=C(O)CC(CCO)c1ccc2cc(CN3CC[C@H](Oc4ccc5c(c4)CN([C@H]4CCC(=O)NC4=O)C5=O)C3)cc(F)c2n1 (relative stereo) [Example 99, rel-3-(6-{[(3S)-3-({2-[(3S)-2,6-dioxopiperidin-3-yl]-1-oxo-2,3-dihydro-1H-isoindol-5-yl}oxy)pyrrolidin-1-yl]methyl}-8-fluoroquinolin-2-yl)-5-hydroxypentanoic acid] | 75 nM | 39.0% | 282 nM | 82.9% | 73 nM | 78.7% |  |  |
| COC[C@@H]1CN(Cc2ccc3nc(N4C[C@@H]5CCO[C@@H]5C4)ccc3c2)C[C@H]1Oc1ccc2c(c1)CN([C@H]1CCC(=O)NC1=O)C2=O (single isomer, unassigned) [Example 16, (S)-3-(5-(((3S,4S)-1-((2-((3aS*,6aS*)-hexahydro-5H-furo[2,3-c]pyrrol-5-yl)quinolin-6-yl)methyl)-4-(methoxymethyl)pyrrolidin-3-yl)oxy)-1-oxoisoindolin-2-yl)piperidine-2,6-dione] |  | 29.6% | 2 nM | 10.8% | 48 nM | 43.7% |  |  |
| COC[C@@H]1CN(Cc2cc(F)c3nc(N4CCN(C(C)=O)C5(COC5)C4)ncc3c2)C[C@H]1Oc1ccc2c(c1)CN([C@H]1CCC(=O)NC1=O)C2=O [Example 86, (S)-3-(5-(((3S,4S)-1-((2-(5-acetyl-2-oxa-5,8-diazaspiro[3.5]nonan-8-yl)-8-fluoroquinazolin-6-yl)methyl)-4-(methoxymethyl)pyrrolidin-3-yl)oxy)-1-oxoisoindolin-2-yl)piperidine-2,6-dione] | 3 nM | 28.5% | 2 nM | 16.9% | 51 nM | 18.4% |  |  |
| COC[C@@H]1CN(Cc2ccc3nc(C4CCN(C5COC5)CC4)ccc3c2)C[C@H]1Oc1ccc2c(c1)CN([C@H]1CCC(=O)NC1=O)C2=O [Example 114, (3S)-3-(5-{[(3S,4S)-4-(methoxymethyl)-1-({2-[1-(oxetan-3-yl)piperidin-4-yl]quinolin-6-yl}methyl)pyrrolidin-3-yl]oxy}-1-oxo-2,3-dihydro-1H-isoindol-2-yl)piperidine-2,6-dione] |  | 29.7% | 1 nM | 8.6% | 14 nM | 47.4% |  |  |
| CN1CC[C@]2(C[C@H](c3ccc4cc(CN5CC[C@H](Oc6ccc7c(c6)CN([C@H]6CCC(=O)NC6=O)C7=O)C5)ccc4n3)CO2)C1 (relative stereo) [Example 3, rel-(3S)-3-(5-(((3S)-1-((2-(7-methyl-1-oxa-7-azaspiro[4.4]nonan-3-yl)quinolin-6-yl)methyl)pyrrolidin-3-yl)oxy)-1-oxoisoindolin-2-yl)piperidine-2,6-dione] | 10 nM | 28.1% | 19 nM | 13.0% | 129 nM | 61.3% |  |  |
| COC[C@@H]1CN(Cc2cc3ccc(C4CCC(O)CC4)cc3cn2)C[C@H]1Oc1ccc2c(c1)CN([C@H]1CCC(=O)NC1=O)C2=O (relative stereo) [Example 51, rel-(S)-3-(5-(((3S,4S)-1-((7-(4-hydroxycyclohexyl)isoquinolin-3-yl)methyl)-4-(methoxymethyl)pyrrolidin-3-yl)oxy)-1-oxoisoindolin-2-yl)piperidine-2,6-dione] | 1 nM | 29.0% | 1 nM | 9.9% | 15 nM | 24.8% |  |  |
| COC[C@@H]1CN(Cc2cnc3nc(C4CCOCC4)ccc3c2)C[C@H]1Oc1ccc2c(c1)CN([C@H]1CCC(=O)NC1=O)C2=O [Example 129, (3S)-3-(5-{[(3S,4S)-4-(methoxymethyl)-1-{[7-(oxan-4-yl)-1,8-naphthyridin-3-yl]methyl}pyrrolidin-3-yl]oxy}-1-oxo-2,3-dihydro-1H-isoindol-2-yl)piperidine-2,6-dione] | 2 nM | 26.0% | 10 nM | 10.6% | 319 nM | 80.6% |  |  |
| COC[C@@H]1CN(Cc2cc(F)c3nc(C4(O)CCOCC4)ccc3c2)C[C@H]1Oc1ccc2c(c1)CN([C@H]1CCC(=O)NC1=O)C2=O [Example 60, (3S)-3-(5-{[(3S,4S)-1-{[8-fluoro-2-(4-hydroxyoxan-4-yl)quinolin-6-yl]methyl}-4-(methoxymethyl)pyrrolidin-3-yl]oxy}-1-oxo-2,3-dihydro-1H-isoindol-2-yl)piperidine-2,6-dione] | 1 nM | 27.4% | 3 nM | 11.7% | 54 nM | 33.7% |  |  |
| COC[C@@H]1CN(Cc2cc(F)c3nc(N4CCC(OC)C4)ccc3c2)C[C@H]1Oc1ccc2c(c1)CN([C@H]1CCC(=O)NC1=O)C2=O (single isomer, unassigned) [Example 98, (S)-3-(5-(((3S,4S)-1-((8-fluoro-2-((S*)-3-methoxypyrrolidin-1-yl)quinolin-6-yl)methyl)-4-(methoxymethyl)pyrrolidin-3-yl)oxy)-1-oxoisoindolin-2-yl)piperidine-2,6-dione] | 1 nM | 29.4% |  | 9.0% |  | 25.1% | 1 nM | 13 nM |
